Patent US12570671B2 (BRISTOL-MYERS SQUIBB COMPANY, priority 2020, dated 2026)

Legend:
Helios = Helios (Homo sapiens, UniProt Q96SW2+Q9UKS7); assay: Helios Cellular Degradation Assay (Helios readout); assay type: cell-based; parameters: endogenous in cells; host or cells: Jurkat; conditions: Jurkat cells, 72 h incubation, Helios-PE antibody staining, flow cytometry; read-out: Helios Jurkat IC50
Outline: (§1)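 Jurkat cells (80,000/well, RPMI+10% FBS) were treated with compound for 72 h at 37° C. After fixation and permeabilization they were stained with fluorescent antibodies to Helios, Ikaros and Aiolos. Intracellular protein levels were quantified by flow cytometry.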

Ikaros = Ikaros (Homo sapiens, UniProt Q13422+Q96SW2); assay: Helios Cellular Degradation Assay (Ikaros readout); assay type: cell-based; parameters: endogenous in cells; host or cells: Jurkat; conditions: Jurkat cells, 72 h incubation, Ikaros-Alexa488 antibody staining, flow cytometry; read-out: Ikaros Jurkat IC50
Outline: as §1

Helios, sequence (Q9UKS7 whole entry): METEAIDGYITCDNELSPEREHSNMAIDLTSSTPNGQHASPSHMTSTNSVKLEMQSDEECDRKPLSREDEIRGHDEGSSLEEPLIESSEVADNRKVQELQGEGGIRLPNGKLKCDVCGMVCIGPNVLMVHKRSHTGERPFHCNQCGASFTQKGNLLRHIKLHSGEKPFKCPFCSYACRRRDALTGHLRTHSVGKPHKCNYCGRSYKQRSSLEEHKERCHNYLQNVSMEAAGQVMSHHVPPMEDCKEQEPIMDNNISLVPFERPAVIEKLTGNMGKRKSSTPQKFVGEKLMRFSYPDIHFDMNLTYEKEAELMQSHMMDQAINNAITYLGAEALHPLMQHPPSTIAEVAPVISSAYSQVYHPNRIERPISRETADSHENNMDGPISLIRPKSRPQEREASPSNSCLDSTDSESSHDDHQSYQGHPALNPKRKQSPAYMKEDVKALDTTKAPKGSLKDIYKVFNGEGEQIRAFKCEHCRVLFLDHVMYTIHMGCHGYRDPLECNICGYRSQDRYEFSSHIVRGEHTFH
Helios, sequence (Q96SW2 whole entry): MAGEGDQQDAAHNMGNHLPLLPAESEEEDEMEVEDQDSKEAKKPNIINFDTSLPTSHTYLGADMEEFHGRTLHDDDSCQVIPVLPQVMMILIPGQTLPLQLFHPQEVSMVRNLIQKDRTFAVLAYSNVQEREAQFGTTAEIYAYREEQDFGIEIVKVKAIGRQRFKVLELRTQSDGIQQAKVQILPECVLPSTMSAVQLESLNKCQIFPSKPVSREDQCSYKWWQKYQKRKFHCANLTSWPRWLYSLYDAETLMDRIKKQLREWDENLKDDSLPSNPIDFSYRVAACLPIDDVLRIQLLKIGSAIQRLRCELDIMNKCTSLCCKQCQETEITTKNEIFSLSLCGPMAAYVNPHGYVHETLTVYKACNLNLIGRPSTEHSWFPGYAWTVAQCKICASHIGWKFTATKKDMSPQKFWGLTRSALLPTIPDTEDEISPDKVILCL
Helios, sequence (Q16531 whole entry partner): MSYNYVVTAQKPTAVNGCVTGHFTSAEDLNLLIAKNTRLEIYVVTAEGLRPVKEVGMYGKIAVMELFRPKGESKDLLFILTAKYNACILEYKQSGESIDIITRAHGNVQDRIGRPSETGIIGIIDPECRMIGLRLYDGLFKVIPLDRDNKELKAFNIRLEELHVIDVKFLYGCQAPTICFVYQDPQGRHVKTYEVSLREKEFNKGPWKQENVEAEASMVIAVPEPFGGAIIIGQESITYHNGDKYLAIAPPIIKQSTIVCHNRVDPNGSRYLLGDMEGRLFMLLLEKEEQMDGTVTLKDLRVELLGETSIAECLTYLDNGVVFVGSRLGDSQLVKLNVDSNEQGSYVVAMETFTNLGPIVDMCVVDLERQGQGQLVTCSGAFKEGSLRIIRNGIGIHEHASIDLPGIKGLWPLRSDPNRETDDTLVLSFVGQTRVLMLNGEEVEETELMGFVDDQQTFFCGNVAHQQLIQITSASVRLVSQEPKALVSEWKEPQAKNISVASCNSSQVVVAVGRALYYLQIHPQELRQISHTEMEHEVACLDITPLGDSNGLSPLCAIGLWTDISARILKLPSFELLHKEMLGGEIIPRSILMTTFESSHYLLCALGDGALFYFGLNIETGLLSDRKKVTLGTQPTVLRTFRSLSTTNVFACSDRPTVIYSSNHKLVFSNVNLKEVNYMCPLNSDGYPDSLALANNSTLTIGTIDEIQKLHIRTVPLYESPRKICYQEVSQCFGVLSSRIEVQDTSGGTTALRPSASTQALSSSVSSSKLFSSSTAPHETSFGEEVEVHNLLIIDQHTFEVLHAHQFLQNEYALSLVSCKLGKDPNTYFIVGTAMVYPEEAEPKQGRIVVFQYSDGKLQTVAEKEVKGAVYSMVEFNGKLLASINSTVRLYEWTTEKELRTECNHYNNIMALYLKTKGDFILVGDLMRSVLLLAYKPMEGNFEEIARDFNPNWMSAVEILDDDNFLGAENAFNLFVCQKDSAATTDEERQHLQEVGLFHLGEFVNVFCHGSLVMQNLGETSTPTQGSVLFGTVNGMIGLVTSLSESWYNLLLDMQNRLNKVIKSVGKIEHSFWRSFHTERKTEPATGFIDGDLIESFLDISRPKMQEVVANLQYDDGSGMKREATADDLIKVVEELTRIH
Ikaros, sequence (Q13422 whole entry): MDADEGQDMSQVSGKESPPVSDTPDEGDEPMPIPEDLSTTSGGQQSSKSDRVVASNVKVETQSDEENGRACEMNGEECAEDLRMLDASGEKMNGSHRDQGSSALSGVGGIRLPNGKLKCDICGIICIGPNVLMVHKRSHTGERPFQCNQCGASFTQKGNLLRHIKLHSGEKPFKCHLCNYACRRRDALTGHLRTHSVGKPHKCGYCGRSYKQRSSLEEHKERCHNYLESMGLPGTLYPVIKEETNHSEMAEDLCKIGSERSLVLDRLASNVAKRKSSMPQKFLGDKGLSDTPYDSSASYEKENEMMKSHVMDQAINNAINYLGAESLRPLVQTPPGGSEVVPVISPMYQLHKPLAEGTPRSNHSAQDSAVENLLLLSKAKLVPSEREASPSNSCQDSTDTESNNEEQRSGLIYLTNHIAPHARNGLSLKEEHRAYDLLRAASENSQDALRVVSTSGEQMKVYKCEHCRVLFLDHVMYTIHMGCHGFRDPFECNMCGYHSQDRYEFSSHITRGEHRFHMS
Ikaros, sequence (Q96SW2 whole entry): as the sequence (Q96SW2 whole entry) above
Ikaros, sequence (Q16531 whole entry partner): as the sequence (Q16531 whole entry partner) above

Compound	DC50 (Helios) [nM]	DC50 (Ikaros) [nM]
O=C1CCC(N2Cc3cc(-c4ccc5c(n4)NCCC5)ccc3C2=O)C(=O)N1 (stereo not drawn) [Example 137, 3-[1-oxo-5-(5,6,7,8-tetrahydro-1,8-naphthyridin-2-yl)-2,3-dihydro-1H-isoindol-2-yl]piperidine-2,6-dione]	10	≥ 10000
CN(C)Nc1cccc(-c2ccc3c(c2)CN(C2CCC(=O)NC2=O)C3=O)n1 (stereo not drawn) [Example 138, 3-{5-[6-(2,2-dimethylhydrazin-1-yl)pyridin-2-yl]-1-oxo-2,3-dihydro-1H-isoindol-2-yl}piperidine-2,6-dione]	920	≥ 10000
O=C1CCC(N2Cc3cc(-c4ccc5[nH]cnc5n4)ccc3C2=O)C(=O)N1 (stereo not drawn) [Example 139, 3-(5-(1H-imidazo[4,5-b]pyridin-5-yl)-1-oxoisoindolin-2-yl)piperidine-2,6-dione]	4160	≥ 20000
Cc1cc(N)nc(-c2ccc3c(c2)CN(C2CCC(=O)NC2=O)C3=O)c1 (stereo not drawn) [Example 140, 3-(5-(6-amino-4-methylpyridin-2-yl)-1-oxoisoindolin-2-yl)piperidine-2,6-dione]	20	≥ 20000
O=C1CCC(N2Cc3cc(-c4ccc5c(n4)NCCO5)ccc3C2=O)C(=O)N1 (stereo not drawn) [Example 141, 3-(5-(3,4-dihydro-2H-pyrido[3,2-b][1,4]oxazin-6-yl)-1-oxoisoindolin-2-yl)piperidine-2,6-dione]	80	≥ 20000
Nc1cncc(-c2ccc3c(c2)CN(C2CCC(=O)NC2=O)C3=O)n1 (stereo not drawn) [Example 142, 3-(5-(6-aminopyrazin-2-yl)-1-oxoisoindolin-2-yl)piperidine-2,6-dione]	1350	≥ 20000
Cc1cc(-c2ccc3c(c2)CN(C2CCC(=O)NC2=O)C3=O)nc(N)n1 (stereo not drawn) [Example 143, 3-(5-(2-amino-6-methylpyrimidin-4-yl)-1-oxoisoindolin-2-yl)piperidine-2,6-dione]	610	≥ 20000
Cc1cc(C)nc(-c2ccc3c(c2)CN(C2CCC(=O)NC2=O)C3=O)c1 (stereo not drawn) [Example 144, 3-(5-(4,6-dimethylpyridin-2-yl)-1-oxoisoindolin-2-yl)piperidine-2,6-dione]	83	≥ 20000
O=C1CCC(N2Cc3cc(-c4nc(O)cc5c(Cl)cccc45)ccc3C2=O)C(=O)N1 (stereo not drawn) [Example 145, 3-(5-(5-chloro-3-hydroxyisoquinolin-1-yl)-1-oxoisoindolin-2-yl)piperidine-2,6-dione]	10	≥ 20000
COc1cc(C)cc(-c2ccc3c(c2)CN(C2CCC(=O)NC2=O)C3=O)n1 (stereo not drawn) [Example 146, 3-(5-(6-methoxy-4-methylpyridin-2-yl)-1-oxoisoindolin-2-yl)piperidine-2,6-dione]	190	≥ 20000
Cc1cc(O)nc(-c2ccc3c(c2)CN(C2CCC(=O)NC2=O)C3=O)c1 (stereo not drawn) [Example 147, 3-(5-(6-hydroxy-4-methylpyridin-2-yl)-1-oxoisoindolin-2-yl)piperidine-2,6-dione]	310	≥ 10000
Cc1cc(-c2ccc3c(c2)CN(C2CCC(=O)NC2=O)C3=O)nc(N)c1C#N (stereo not drawn) [Example 148, 2-amino-6-(2-(2,6-dioxopiperidin-3-yl)-1-oxoisoindolin-5-yl)-4-methylnicotinonitrile]	10	≥ 10000
N#Cc1cc(N)nc(-c2ccc3c(c2)CN(C2CCC(=O)NC2=O)C3=O)c1 (stereo not drawn) [Example 149, 2-amino-6-(2-(2,6-dioxopiperidin-3-yl)-1-oxoisoindolin-5-yl)isonicotinonitrile]	190	≥ 10000
Nc1nc(-c2ccc3c(c2)CN(C2CCC(=O)NC2=O)C3=O)cc2c1CCCC2 (stereo not drawn) [Example 150, 3-(5-(1-amino-5,6,7,8-tetrahydroisoquinolin-3-yl)-1-oxoisoindolin-2-yl)piperidine-2,6-dione]	32	≥ 10000
Cc1cc(-c2ccc3c(c2)CN(C2CCC(=O)NC2=O)C3=O)nc(N)c1C (stereo not drawn) [Example 151, 3-(5-(6-amino-4,5-dimethylpyridin-2-yl)-1-oxoisoindolin-2-yl)piperidine-2,6-dione]	10	≥ 10000
Cc1cc(-c2ccc3c(c2)CN(C2CCC(=O)NC2=O)C3=O)ncc1C#N (stereo not drawn) [Example 152, 6-(2-(2,6-dioxopiperidin-3-yl)-1-oxoisoindolin-5-yl)-4-methylnicotinonitrile]	760	≥ 10000
COc1c(C)cc(-c2ccc3c(c2)CN(C2CCC(=O)NC2=O)C3=O)nc1N (stereo not drawn) [Example 153, 3-(5-(6-amino-5-methoxy-4-methylpyridin-2-yl)-1-oxoisoindolin-2-yl)piperidine-2,6-dione]	70	≥ 10000
COc1cccc(-c2ccc3c(c2)CN(C2CCC(=O)NC2=O)C3=O)n1 (stereo not drawn) [Example 155, 3-[5-(6-Methoxypyridin-2-yl)-1-oxo-2,3-dihydro-1H-isoindol-2-yl]piperidine-2,6-dione]	5330	≥ 20000
COc1nc(-c2ccc3c(c2)CN(C2CCC(=O)NC2=O)C3=O)cc2ccccc12 (stereo not drawn) [Example 156, 3-[5-(1-Methoxyisoquinolin-3-yl)-1-oxo-2,3-dihydro-1H-isoindol-2-yl]piperidine-2,6-dione]	500	≥ 20000
O=C1CCC(N2Cc3cc(-c4cc5ccccc5c(=O)[nH]4)ccc3C2=O)C(=O)N1 (stereo not drawn) [Example 157, 3-[1-Oxo-5-(1-oxo-1,2-dihydroisoquinolin-3-yl)-2,3-dihydro-1H-isoindol-2-yl]piperidine-2,6-dione]	110	≥ 20000
O=C1CCC(N2Cc3cc(-c4cc5c(ccn5Cc5ccccc5)cn4)ccc3C2=O)C(=O)N1 (stereo not drawn) [Example 158, 3-(5-{1-Benzyl-1H-pyrrolo[3,2-c]pyridin-6-yl}-1-oxo-2,3-dihydro-1H-isoindol-2-yl) piperidine-2,6-dione]	20	≥ 10000
O=C1CCC(N2Cc3cc(-c4cc5[nH]ccc5cn4)ccc3C2=O)C(=O)N1 (stereo not drawn) [Example 159, 3-(1-oxo-5-(1H-pyrrolo[3,2-c]pyridin-6-yl)isoindolin-2-yl)piperidine-2,6-dione]	50	320
O=C1CCC(N2Cc3cc(-c4nccc5[nH]ccc45)ccc3C2=O)C(=O)N1 (stereo not drawn) [Example 160, 3-(1-oxo-5-(1H-pyrrolo[3,2-c]pyridin-4-yl)isoindolin-2-yl)piperidine-2,6-dione]	70	≥ 20000
O=C1CCC(N2Cc3cc(-c4nccc5c4ccn5Cc4ccccc4)ccc3C2=O)C(=O)N1 (stereo not drawn) [Example 161, 3-(5-(1-benzyl-1H-pyrrolo[3,2-c]pyridin-4-yl)-1-oxoisoindolin-2-yl)piperidine-2,6-dione]	20	90
N#Cc1cccc(-c2ccc3c(c2)CN(C2CCC(=O)NC2=O)C3=O)n1 (stereo not drawn) [Example 162, 6-(2-(2,6-dioxopiperidin-3-yl)-1-oxoisoindolin-5-yl)picolinonitrile]	2460	≥ 20000
Nc1cc(C(F)(F)F)cc(-c2ccc3c(c2)CN(C2CCC(=O)NC2=O)C3=O)n1 (stereo not drawn) [Example 163, 3-(5-(6-amino-4-(trifluoromethyl)pyridin-2-yl)-1-oxoisoindolin-2-yl)piperidine-2,6-dione]	90	≥ 20000
COc1cc(N)nc(-c2ccc3c(c2)CN(C2CCC(=O)NC2=O)C3=O)c1 (stereo not drawn) [Example 164, 3-(5-(6-amino-4-methoxypyridin-2-yl)-1-oxoisoindolin-2-yl)piperidine-2,6-dione]	40	≥ 20000
